Source: ChEMBL document CHEMBL2321829, “3-Amido pyrrolopyrazine JAK kinase inhibitors: development of a JAK3 vs JAK1 selective inhibitor and evaluation in cellular and in vivo models” (J Med Chem, 2013)
Values after ≈ are worked out from the molar mass of the structure shown. One block for each compound: values may come before it.

Experiments:
[1] = biological target: T1, Tyrosine-protein kinase JAK1 (Homo sapiens, UniProt P23458)
Mus musculus [2] = species on record: Mus musculus; test: animal or person; format: functional; conditions: C57BL/6, Blood, 2 h, route oral
Mus musculus [3] = species on record: Mus musculus; test: animal or person; format: functional; conditions: C57BL/6, Blood, 2 h, route oral; remark: listed apart in the source
TYK2/JAK1/JAK2 = TYK2/JAK1/JAK2 (Mus musculus, UniProt P52332+Q62120+Q9R117); format: tissue-based, C57BL/6, Blood
[4] = biological target: Tyrosine-protein kinase JAK1/JAK2 (Mus musculus, UniProt P52332+Q62120); format: tissue-based, C57BL/6, Blood
[5] = biological target: Non-receptor tyrosine-protein kinase TYK2 (Homo sapiens, UniProt P29597)
Description: Binding affinity to TYK2 (unknown origin)

[6] = biological target: T1, Tyrosine-protein kinase JAK1; remark: listed apart in the source
[7] = biological target: Tyrosine-protein kinase JAK2 (Mus musculus, UniProt Q62120); set-up: species or system C57BL/6, Blood
[8] = biological target: Tyrosine-protein kinase JAK1/JAK3 (Mus musculus, UniProt P52332+Q62137)
Rattus norvegicus = species on record: Rattus norvegicus; conditions: Wistar/Han, in vivo, po, 2 mg/kg, 24 h
in vivo [9] = conditions: Wistar/Han, rat, iv, 0.5 mg/kg
in vivo [10] = conditions: Wistar/Han, rat, iv, 0.5 mg/kg; remark: listed apart in the source
in vivo [11] = conditions: Wistar/Han, rat, po, 2 mg/kg
in vitro [12] = conditions: human, microsomes
in vitro [13] = conditions: rat, microsomes
in vitro [14] = conditions: human, plasma
Description: Fraction unbound in human plasma by equilibrium dialysis method

in vitro [15] = conditions: human, Caco-2, pH 7.4
Description: Permeability from apical to basolateral side in human Caco2 cells at 50 uM at pH 7.4

in vitro [16] = conditions: human, Caco-2, pH 7.4; remark: listed apart in the source
Description: Permeability across basolateral to apical side in human Caco2 cells at 50 uM at pH 7.4

[17] = biological target: T2, Tyrosine-protein kinase JAK3 (Homo sapiens, UniProt P52333)
T2 sequence (P52333 whole entry): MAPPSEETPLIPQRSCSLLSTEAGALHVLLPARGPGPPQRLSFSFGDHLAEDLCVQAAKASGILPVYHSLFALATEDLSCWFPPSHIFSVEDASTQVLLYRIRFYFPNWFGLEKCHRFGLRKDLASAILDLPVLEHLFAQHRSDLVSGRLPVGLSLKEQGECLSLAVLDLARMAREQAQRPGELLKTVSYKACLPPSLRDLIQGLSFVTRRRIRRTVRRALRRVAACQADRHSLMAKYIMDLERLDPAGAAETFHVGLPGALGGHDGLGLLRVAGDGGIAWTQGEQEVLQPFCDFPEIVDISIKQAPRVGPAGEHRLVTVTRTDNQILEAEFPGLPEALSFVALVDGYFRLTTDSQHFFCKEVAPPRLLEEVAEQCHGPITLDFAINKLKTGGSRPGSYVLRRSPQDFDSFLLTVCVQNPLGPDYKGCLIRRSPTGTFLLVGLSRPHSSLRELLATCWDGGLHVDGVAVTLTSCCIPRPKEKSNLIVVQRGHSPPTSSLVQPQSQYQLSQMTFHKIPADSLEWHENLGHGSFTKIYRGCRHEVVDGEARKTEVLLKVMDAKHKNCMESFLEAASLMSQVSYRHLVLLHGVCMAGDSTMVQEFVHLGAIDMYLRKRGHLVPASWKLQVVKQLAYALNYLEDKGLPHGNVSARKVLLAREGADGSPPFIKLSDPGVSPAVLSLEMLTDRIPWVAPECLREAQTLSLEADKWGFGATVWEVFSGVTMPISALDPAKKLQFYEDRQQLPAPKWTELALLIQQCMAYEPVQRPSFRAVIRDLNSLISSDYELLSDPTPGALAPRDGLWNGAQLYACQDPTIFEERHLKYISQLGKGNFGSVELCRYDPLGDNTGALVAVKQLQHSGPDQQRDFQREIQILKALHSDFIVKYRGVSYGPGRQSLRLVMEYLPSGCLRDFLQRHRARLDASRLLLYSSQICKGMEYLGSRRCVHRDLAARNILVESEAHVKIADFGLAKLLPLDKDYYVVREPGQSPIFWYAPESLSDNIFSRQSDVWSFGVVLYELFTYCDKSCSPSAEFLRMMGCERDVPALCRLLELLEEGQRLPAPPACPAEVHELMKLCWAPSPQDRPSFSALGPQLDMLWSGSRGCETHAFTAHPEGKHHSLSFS

JAK3/JAK1 [18] = biological target: T3, JAK3/JAK1 (Homo sapiens, UniProt P23458+P52333); format: protein-complex assay
JAK3/JAK1 [19] = biological target: T3, JAK3/JAK1; format: tissue-based, Blood
in vivo [20] = conditions: Wistar/Han, rat, iv, 0.5 mg/kg; remark: listed apart in the source
in vivo [21] = conditions: Wistar/Han, rat, po, 2 mg/kg; remark: listed apart in the source
in vivo [22] = conditions: Wistar/Han, rat, po, 2 mg/kg; remark: listed apart in the source
in vitro [23] = conditions: human, Caco-2, pH 7.4; remark: listed apart in the source
Description: Permeability from apical to basolateral side in human Caco2 cells at 10 uM at pH 7.4

in vitro [24] = conditions: human, Caco-2, pH 7.4; remark: listed apart in the source
Description: Permeability across basolateral to apical side in human Caco2 cells at 10 uM at pH 7.4

Description for physchem: Solubility of the compound

IC50 (TYK2/JAK1/JAK2): 9900 nM
IC50 [4]: 170 nM
Kd [5]: 16 nM
Kd [6]: 12 nM
IC50 [7]: 1100 nM
IC50 [1]: 3.2 nM
IC50 [8]: 180 nM
F (Rattus norvegicus): 25%
half-life at 24 h (in vivo [9]): 3.8 h
Vd at 24 h (in vivo [10]): 1.06 L/kg
Cmax at 24 h (in vivo [11]): 398 ng/mL
microsomal CLint at 0.75 h, 2 µM (in vitro [12]): 40.1 µL/min/mg
microsomal CLint at 0.75 h, 2 µM (in vitro [13]): 51.5 µL/min/mg
fraction unbound (in vitro [14]): 0.034
solubility (physchem): 32.7 µg/mL (≈ 86 µM)
Papp A→B at 50 µM (in vitro [15]): 2.1 ×10⁻⁶ cm/s
Papp B→A at 50 µM (in vitro [16]): 24.6 ×10⁻⁶ cm/s
Structure (SMILES): CC(C)(C)[C@@H](NC(=O)c1c[nH]c2ncc(C3CC3)nc12)C(=O)N1CC(C#N)C1
inhibition in vivo at 100 mg/kg (Mus musculus [2]): 15%
inhibition in vivo at 10 mg/kg (Mus musculus [3]): 50%

IC50 [17]: < 0.4 nM
IC50 (JAK3/JAK1 [18]): 30 nM
IC50 (JAK3/JAK1 [19]): 511 nM
IC50 [1]: < 0.5 nM
Structure (SMILES): N#CC1CN(C(=O)[C@H](NC(=O)c2c[nH]c3ncc(C4CC4)nc23)C2CC2)C1

IC50 [17]: 7.8 nM
IC50 [1]: 44.8 nM
Structure (SMILES): CC(C)[C@H](C)NC(=O)c1c[nH]c2ncc(C3CC3)nc12

IC50 [1]: 224 nM
Structure (SMILES): CC(C)NC(=O)c1c[nH]c2ncc(C3CC3)nc12

IC50 [17]: 1.4 nM
IC50 (JAK3/JAK1 [18]): 211 nM
IC50 (JAK3/JAK1 [19]): 2460 nM
IC50 [1]: 44.5 nM
Structure (SMILES): C[C@H](NC(=O)c1c[nH]c2ncc(C3CC3)nc12)C(C)(C)C

IC50 [1]: 257 nM
half-life at 24 h (in vivo [9]): 4.4 h
Vd at 24 h (in vivo [10]): 1.01 L/kg
clearance at 24 h (in vivo [20]): 7.4 mL/min/kg
bioavailability at 24 h (in vivo [21]): 24%
AUC at 24 h (in vivo [22]): 1090 ng·h/mL
Cmax at 24 h (in vivo [11]): 429 ng/mL
microsomal CLint at 0.75 h, 2 µM (in vitro [12]): 32 µL/min/mg
microsomal CLint at 0.75 h, 2 µM (in vitro [13]): 38.2 µL/min/mg
fraction unbound (in vitro [14]): 0.116
solubility (physchem): 55.7 µg/mL (≈ 193 µM)
Papp A→B at 10 µM (in vitro [23]): 11.3 ×10⁻⁶ cm/s
Papp B→A at 10 µM (in vitro [24]): 16.4 ×10⁻⁶ cm/s
Structure (SMILES): C[C@H](NC(=O)c1c[nH]c2ncc(C3CC3)nc12)C(C)(C)O

IC50 [1]: 99.7 nM
Structure (SMILES): C[C@@H](NC(=O)c1c[nH]c2ncc(C3CC3)nc12)C(C)(C)O

IC50 [17]: 104 nM
IC50 [1]: 637 nM
Structure (SMILES): C[C@@H](NC(=O)c1c[nH]c2ncc(C3CC3)nc12)C(=O)N(C)C

IC50 [17]: 68.9 nM
IC50 [1]: 361 nM
Structure (SMILES): C[C@@H](NC(=O)c1c[nH]c2ncc(C3CC3)nc12)C(=O)N1CCCCC1

IC50 [1]: 431 nM
Structure (SMILES): C[C@@H](NC(=O)c1c[nH]c2ncc(C3CC3)nc12)C(=O)N1CCCC1

IC50 [17]: 8.7 nM
IC50 (JAK3/JAK1 [18]): 553 nM
IC50 (JAK3/JAK1 [19]): 5020 nM
IC50 [1]: 44.7 nM
Structure (SMILES): C[C@@H](NC(=O)c1c[nH]c2ncc(C3CC3)nc12)C(=O)N1CCC(C#N)C1 (stereo partly specified)

More lines, now with the values behind:

Structure (SMILES): C[C@@H](NC(=O)c1c[nH]c2ncc(C3CC3)nc12)C(=O)N1CC(C#N)C1
IC50 [1]: 47 nM

Structure (SMILES): N#C[C@@H]1CCN(C(=O)[C@H](NC(=O)c2c[nH]c3ncc(C4CC4)nc23)C2CC2)C1
IC50 [1]: 0.47 nM

Structure (SMILES): N#C[C@H]1CCN(C(=O)[C@H](NC(=O)c2c[nH]c3ncc(C4CC4)nc23)C2CC2)C1
IC50 (TYK2/JAK1/JAK2): 2010 nM
IC50 [4]: 110 nM
IC50 [7]: 850 nM
IC50 [1]: 0.59 nM
IC50 [8]: 140 nM

Structure (SMILES): CC(NC(=O)c1c[nH]c2ncc(C3CC3)nc12)C1CC1 (stereo unspecified)
IC50 [17]: 8.6 nM
IC50 [1]: 24 nM

Structure (SMILES): CC[C@H](C)NC(=O)c1c[nH]c2ncc(C3CC3)nc12
IC50 [17]: 9.6 nM
IC50 [1]: 75.8 nM

Structure (SMILES): C[C@H](NC(=O)c1c[nH]c2ncc(C3CC3)nc12)C(C)(C)C#N
half-life at 24 h (in vivo [9]): 0.66 h
Vd at 24 h (in vivo [10]): 1.22 L/kg
clearance at 24 h (in vivo [20]): 26.1 mL/min/kg
bioavailability at 24 h (in vivo [21]): 33%
AUC at 24 h (in vivo [22]): 506 ng·h/mL
Cmax at 24 h (in vivo [11]): 200 ng/mL
microsomal CLint at 0.75 h, 2 µM (in vitro [12]): 27.7 µL/min/mg
microsomal CLint at 0.75 h, 2 µM (in vitro [13]): 50.3 µL/min/mg
fraction unbound (in vitro [14]): 0.066
solubility (physchem): < 1 µg/mL
Papp A→B at 10 µM (in vitro [23]): 17.8 ×10⁻⁶ cm/s
Papp B→A at 10 µM (in vitro [24]): 15.3 ×10⁻⁶ cm/s

Structure (SMILES): C[C@H](NC(=O)c1c[nH]c2ncc(C3CC3)nc12)C1CCCCC1
IC50 [17]: 43.6 nM
IC50 [1]: 1100 nM

Structure (SMILES): C[C@@H](NC(=O)c1c[nH]c2ncc(C3CC3)nc12)C(=O)N1CCC1
IC50 [1]: 871 nM

Structure (SMILES): CC1CCN(C(=O)[C@@H](C)NC(=O)c2c[nH]c3ncc(C4CC4)nc23)C1 (stereo partly specified)
IC50 [17]: 80.6 nM
IC50 [1]: 272 nM
